Assay results from PubChem BioAssay (NCI).
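Interpolation was linear, between the two tested concentrations surrounding the appropriate level; five concentrations were tested over 48 hours in 96-well plates. The concentration for full growth arrest is given as TGI.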

What was measured:
Test in all cases: DTP human tumour cell line panel, 48 h
[1] = system: 786-0 renal
[2] = system: A498 renal
[3] = system: CAKI-1 renal
[4] = system: HCC-2998 colon
[5] = system: HCT-15 colon
[6] = system: KM12 colon
[7] = system: MDA-MB-231 breast
[8] = system: NCI-H23 lung
[9] = system: OVCAR-8 ovarian
[10] = system: PC-3 prostate
[11] = system: SF-539 CNS

SMILES	TGI [1] [µM]	TGI [2] [µM]	TGI [3] [µM]	TGI [4] [µM]	TGI [5] [µM]	TGI [6] [µM]	TGI [7] [µM]	TGI [8] [µM]	TGI [9] [µM]	TGI [10] [µM]	TGI [11] [µM]
CC(C)c1cc(CN(C)C)c(O)c(C(C)(C)C)c1	32.5	41.3	53.8	29.6	63.3	46.2	> 100	> 100	99.6	56.7	–
CN(C)c1ccc(/C=c2/c3ccccc3n3nc4ccccc4c23)cc1	> 100	67	> 100	–	> 100	> 100	> 100	> 100	> 100	> 100	84.8
Cc1nc(Nc2ccccc2Cl)sc1C(=O)CC(=O)C(=O)Nc1c(Cl)cccc1Cl	66	–	> 100	> 100	> 100	91.4	42.9	> 100	96.7	> 100	83
Nc1ccc2nc(Nc3ccc(F)cc3)cnc2c1	> 100	–	> 100	> 100	> 100	> 100	–	–	> 100	–	> 100
c1ccc(N=C(Nc2ccccc2)N2CCCCC2)cc1	> 100	–	> 100	–	> 100	> 100	–	> 100	> 100	> 100	–
Cc1ccc(C)n1-n1c(Cc2ccccc2)n[nH]c1=O	> 100	> 100	> 100	> 100	> 100	> 100	> 100	–	> 100	> 100	–
[O-][n+]1onc2c1CCC(=N\O)/C2=N/Nc1ccccc1	> 100	> 100	> 100	–	> 100	> 100	> 100	> 100	> 100	> 100	> 100
O=C1C(N2CCNCC2)=C(Cl)C(=O)c2ncccc21	> 10	–	> 10	> 10	> 10	> 10	> 10	> 10	> 10	> 10	> 10
CCOC(=O)C(/C=N\C(=S)Nc1ccc(Cl)c(Cl)c1)=C(/O)c1ccccc1	> 100	20.4	84.9	60.4	> 100	> 100	90.9	> 100	> 100	> 100	–
N=C(N)N1CCC(N2CCOCC2)CC1	> 100	> 100	–	> 100	> 100	> 100	> 100	> 100	> 100	–	> 100
Nc1nc(N)c2c(n1)NC(=O)c1c(c3ccccc3n1Cc1ccc(Cl)cc1)C2	–	30.8	34.5	34.4	35.6	–	–	> 100	96.6	> 100	44.8
Cc1nc2ccc(S(=O)(=O)Nc3ccccc3)cc2c(=O)n1NC(=O)CNc1ccccc1	> 100	–	> 100	> 100	> 100	> 100	> 100	> 100	> 100	> 100	> 100
COc1ccc(C(=O)Cn2c(C(=O)/C=C/c3ccco3)nc3ccccc32)cc1	> 100	> 100	–	37.1	> 100	> 100	> 100	> 100	–	> 100	> 100
COc1cc(CNc2ccc3nc4n(c(=O)c3c2)CCCCC4)cc(OC)c1OC	> 100	> 100	> 100	–	> 100	> 100	> 100	> 100	> 100	> 100	> 100
c1ccc(Cc2nc(Cc3n[nH]c(Cc4ccccc4)n3)n[nH]2)cc1	> 100	–	–	> 100	> 100	> 100	> 100	> 100	> 100	> 100	> 100
Cc1nc2sc3ccccc3n2c(=O)c1N=Nc1ccc(Br)cc1	> 100	> 100	> 100	–	> 100	> 100	> 100	> 100	> 100	> 100	> 100
CS/C1=C(\c2ccc(C)cc2)N(c2ccccc2)C(=O)C(=O)N(c2ccccc2)/C(c2ccc(C)cc2)=C(/SC)SS1	> 100	> 100	> 100	> 100	> 100	–	> 100	> 100	> 100	> 100	> 100
O=C(CC(C(=O)c1ccco1)c1ccsc1)c1ccco1 (stereo not given)	> 100	> 100	> 100	> 100	> 100	> 100	> 100	> 100	> 100	–	> 100
CSc1nc(Cl)c(Br)c(Sc2nc(N)nc3nc[nH]c23)n1	15.2	–	10.2	15.2	21.2	19	–	24	41.9	–	11.2
O=C(O)CN1CCN2CCOCCOCCN(CC1)CCN(CC(=O)O)CC2	> 100	> 100	> 100	–	> 100	> 100	> 100	–	> 100	> 100	> 100
COc1cc(OC)c2c(=O)cc(-c3ccccc3F)[nH]c2c1	> 100	> 100	> 100	52.3	> 100	> 100	> 100	> 100	> 100	> 100	–
Cc1ccc2c(=O)c3cccc(CC(=O)O)c3[nH]c2c1C	> 100	> 100	> 100	–	> 100	> 100	> 100	> 100	> 100	> 100	> 100
NNC(=O)c1ccccc1NC(=O)/C(=C/c1ccccc1O)NC(=O)c1ccccc1	> 100	> 100	31.8	> 100	> 100	> 100	> 100	> 100	37.7	–	92.4
